Measurements: PubChem BioAssay AID179 (DTP/NCI, 2004)
pEC50, pIC50: −log10 of the molar value. “And” between values parts separate entries of the source, which are not always exact repeats. Equal values may be shown once. The source made the active and inactive calls.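 How the source made its calls: active means compounds giving half or more protection of infected cells from virus-caused growth loss, again on retest; inactive means the rest.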 Where a SMILES comes first, the peptide text is derived from it. Bridges are numbered along the chain shown (N, C = ends). [ ]: non-standard residue; d: D form. Aib = CC(C)(N)C(=O)O; βAla = NCCC(=O)O

Tested on: CEM cells HIV-1 protection, formazan growth assay
Assay: NCI AIDS Antiviral Assay
Conditions: for pIC50: measured here: growth of uninfected CEM cells
Method in brief: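 Screen of anti-HIV-1 activity in human CEM cells using a formazan-based growth measurement at five drug concentrations. Hits with 50% or greater protection were repeated, and confirmation required reproducible complete protection.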

Row | Structure (SMILES) | pEC50 | pIC50 | outcome
1 | S=c1[nH]c2ccccc2[nH]c1=S | < 3.70 | 4.58 | 
2 | c1ccc(-c2nc3sc(-c4ccccn4)nc3s2)nc1 |  |  | inactive
3 | COC(=O)c1ccc(C)cc1/C=C1\Cc2ccc(C)cc2C1=O | < 3.70 | 4.73 | 
4 | CN(c1cn(C2CC[C@@H](CO)O2)c(=O)[nH]c1=O)C1CCCCC1 (some centres not stated) | < 3.70 | < 3.70 | 
5 | O=C1/C(=C/c2ccc3c(c2)OCCO3)CCC/C1=C\c1ccc2c(c1)OCCO2 | < 5.16 | < 5.16 | 
6 | CCN(CC)c1ccc(N=C2C=C(Cl)C(=O)c3ncccc32)c(C)c1 |  |  | inactive
7 | COC(=O)/C=C\C(C#N)(C#N)N=Cc1cccc(OC)c1 | < 4.70 | 5.90 | 
8 | N#CC(C#N)=Cc1ccccc1[N+](=O)[O-] | < 3.52 | 4.82 | 
9 | CC[CH2][Pb]([CH2]CC)([CH2]CC)[NH]S(=O)(=O)c1ccc(C)cc1 | < 5.70 | 6.78 | 
10 | O=S(c1ccccc1)c1ccccc1 | < 3.35 | 3.41 | 
11 | Cc1nc2c(=O)[nH]c3ccc(Cl)cc3c2o1 | < 3.70 | 3.83 | 
12 | Cc1cn(C2CCC(CO)(CF)O2)c(=O)[nH]c1=O (configuration not stated) | < 3.70 | < 3.70 | 
13 | Cc1ccc(S(=O)(=O)N2CCCC2C(=O)NNC(N)=S)cc1 (configuration not stated) | < 3.70 | 3.93 | 
14 | COc1ccc(C2OCC3OC(n4cc(C)c(=O)[nH]c4=O)CC3N2O)cc1 (configuration not stated) | < 3.70 | < 3.70 | 
15 | COc1cccc(C2C(C(=O)O)=C(CO)Oc3cc4c(cc32)OCO4)c1 (configuration not stated) |  |  | inactive
16 | NS(=O)(=O)c1ccc(NC(=S)/N=C\c2c(O)[nH]c(=O)[nH]c2=O)cc1 | < 3.70 | < 3.70 | 
17 | CCCCc1c2c(nc3c1CCCC3=O)CCCC2 | < 3.71 | 4.54 | 
18 | CCN(CC)S(=O)(=O)c1ccc(Nc2nc(Cl)nc(Cl)n2)cc1 | < 3.70 | < 3.70 | 
19 | Cc1cc(C)nc(NS(=O)(=O)c2ccc(NC(=O)c3cccc4c(=O)c5ccccc5[nH]c34)cc2)n1 |  |  | inactive
20 | CC(=O)NS(=O)(=O)c1ccc(N=Cc2cc(Cl)cc(Cl)c2O)cc1 | < 3.70 | 4.71 | 
21 | N#CC1(C#N)C=CC(=C2OCC3CCCN23)C=C1 (configuration not stated) |  |  | inactive
22 | BrC(/C=N/Nc1nnc(-c2ccccc2)c(-c2ccccc2)n1)C(Br)c1ccccc1 (configuration not stated) | < 4.87 | < 4.87 | 
23 | COC1=CC(=O)C(Br)=CC1=O |  |  | inactive

Row | Structure (SMILES) | pEC50 | pIC50 | outcome
24 | CC1(C)CNC[C@@](C)(O)C(=O)NC(C)(C)CNC[C@](C)(O)C(=O)N1 | 3.73 | < 3.70 | 
25 | C[n+]1c(-c2ccc(/C=N/Nc3n[nH]c(=S)n3N/N=C/c3ccc(-c4cn5ccccc5[n+]4C)cc3)cc2)cn2ccccc21 | 4.73 | < 3.70 | 
26 | O=c1c2ccccc2sc2ccccc12 | < 3.70 | < 3.70 | 
27 | CCCCCCCCCCCCCCCCOP(=O)(O)Oc1ccc(/C=C\c2ccc(OP(=O)(O)OCCCCCCCCCCCCCCCC)cc2)cc1 |  |  | inactive
28 | N#CCc1ccc(C(C#N)/C(CCCC(=O)Nc2cccc([N+](=O)[O-])c2)=N\NC(=O)NN)cc1 (configuration not stated) | < 3.41 | < 3.41 | 
29 | CCCCc1ccc(Nc2nc(Cl)c3ccn(C4CC(Oc5ccc(C)cc5)C(COc5ccc(C)cc5)O4)c3n2)cc1 (configuration not stated) | < 3.70 | < 3.70 | 
30 | CC(=O)C1=CC=C/C1=N\Nc1ccccc1 | < 3.70 | 4.96 | 
31 | Cc1ccc2[nH]c3c(c2c1)[n+]([O-])c1ccccc1[n+]3[O-] | < 3.70 | 4.41 | 
32 | O=c1c2cc(S(=O)(=O)Nc3ccccc3)ccc2ncn1NS(=O)(=O)c1ccccc1 | < 4.00 | 4.23 | 
33 | CC1(C)NC(=O)C(NC(=O)C(N)CC(=O)O)CCCCNC(=O)CCNC1=O (configuration not stated) (H-DK[Aib][βAla]; lactam 2-C; configuration not given here) | < 3.70 | < 3.70 | 
34 | O=C(NNc1ccnc2cc(Cl)ccc12)/C(=C\c1ccccc1Cl)NC(=O)c1ccccc1 | < 4.00 | 4.25 | 
35 | COc1ccccc1N1C(=O)/C(=C\c2cccc(Oc3ccccc3)c2)S(=O)(=O)C1c1ccccc1 (configuration not stated) | < 3.70 | 4.44 | 
36 | CC1(C)CC2(C)CC1CC2O (configuration not stated) | < 3.70 | < 3.70 | 
37 | N#Cc1c(N)oc2cc3c(C#N)c(N)oc3cc12 |  |  | inactive
38 | O=C1NN=C(C2CCCCC2)C12CCCCC2 | < 3.67 | 4.17 | 
39 | CC/C(=C/OC)P1(=O)OC(C)(C)CN1C(C)(C)C (configuration not stated) | < 3.70 | 3.82 | 
40 | COc1cc(OC)cc(-n2c(N)c(-c3nc4ccccc4s3)c3ccc([N+](=O)[O-])cc3c2=O)c1 | < 3.70 | 3.83 | 
41 | COc1ccc(-c2cc(C)n(C3OC(CO)C(O)C(O)C3O)c(=S)c2C#N)cc1 (configuration not stated) | < 3.70 | 3.90 | 
42 | Cn1c(-c2ccc(/C=N/NC(N)=NCCCCCCN=C(N)N/N=C/c3ccc(-c4c[n+]5ccccc5n4C)cc3)cc2)c[n+]2ccccc12 | 5.65 | 4.52 | 
43 | CCOC(=O)/C=C\SCCC(=O)OC | < 2.94 | 3.13 | 
44 | CCn1nc(C)c2c1C(=O)NC(C)C(=O)N2 (configuration not stated) | < 3.70 | < 3.70 | 
45 | CC(=O)NNc1nc(C)c(C(=O)/C=C/c2ccc(Cl)c(Cl)c2)s1 | < 4.29 | < 4.29 | 
46 | Cc1ccc2c(c1)C(C(=O)N[C@@H]1C(=O)N3[C@@H]1SC(C)(C)[C@@H]3C(=O)O)OCCC2 (some centres not stated) | < 3.70 | < 3.70 | 

Row | Structure (SMILES) | pEC50 | pIC50 | outcome
47 | CCN1CCN(c2ccc(Nc3ccnc4ccc5nn(C)nc5c34)cc2)CC1 | < 4.73 | 5.14 | 
48 | COP1(=O)OCc2cnccc2O1 (configuration not stated) | < 3.70 | < 3.70 | 
49 | CCOC(=O)NC(Nc1cc(Cl)ccc1OC)(C(F)(F)F)C(F)(F)F | < 3.70 | 3.99 | 
50 | CC(C)(C)OC(=O)[C@@H]1CCC(=O)N1C1(c2ccccc2)c2ccccc2-c2ccccc21 | < 3.70 | 3.85 | 
51 | N#CNc1nc(N)c(-c2ccc(Cl)cc2)c(C(=O)Nc2nccs2)n1 | < 3.17 | < 3.17 | 
52 | CCCCCCCCCCCCCCC(C(=O)O)C(=O)O | < 3.08 | 3.40 | 
53 | [Li+] |  |  | inactive
54 | O=c1c2c3c(sc2nc2n1N=CN(c1ccccc1)C2)CCCC3 | < 3.70 | < 3.70 | 
55 | CCOC(=O)C(Cl)(NC(=O)OCc1ccccc1)C(F)(F)F (configuration not stated) |  |  | inactive
56 | C[C@@H](NS(=O)(=O)c1ccc(NC(=O)c2ccccc2)cc1)C(=O)O |  |  | inactive
57 | CNc1ccc2ncccc2c1[N+](=O)[O-] | < 4.33 | < 4.33 | 
58 | O=c1sc2c(s1)SSSSS2 | < 4.30 | 4.80 | 
59 | COc1ccc(/C=C/C(=O)C(C)C)cc1 | < 3.70 | 4.47 | 
60 | CN(c1ccc(C(=O)c2ccc(N(C)S(C)(=O)=O)cc2)cc1)S(C)(=O)=O | < 4.60 | < 4.60 | 
61 | Cc1ccccc1N=Cc1ccc(N(CCC#N)S(=O)(=O)c2ccccc2)cc1 | < 3.21 | 3.32 | 
62 | COc1cc2c(cc1O)C=NCC2 |  |  | inactive
63 | O=c1c2ccccc2sc2nc(CCl)nn12 | < 3.45 | 4.24 | 
64 | O=C(c1cc(Cl)ccc1Cl)N1CCN(c2ccc(Cl)c(Cl)c2)CC1 | < 3.70 | 4.60 | 
65 | Cc1ccc(C=C(C(=O)O)C(=O)O)o1 | 3.84 | < 3.70 | 
66 | C=C1CN(S(=O)(=O)c2ccc(C)cc2)CCCN(CCC(C)C)CCCN(S(=O)(=O)c2ccc(C)cc2)C1 | < 3.70 | 5.99 | 
67 | CC(=O)C(CCC(=O)O)(CCC(=O)O)C(C)C | < 2.99 | < 2.99 | 
68 | O=C(O)/C=C/C(=O)Nc1ccccc1-n1cccc1 | < 3.70 | < 3.70 | 
69 | COc1ccccc1NC(=O)C1=C(C)NC(C)=C(C(=O)Nc2ccccc2OC)C1c1ccccc1F |  |  | inactive

Row | Structure (SMILES) | pEC50 | pIC50 | outcome
70 | CC/C=C/c1cc2c(c3[nH]ccc13)[C@@H](C)CC2C (some centres not stated) (tested in a mixture with another compound) |  |  | inactive
71 | COc1cccc(NC(=O)CC(=O)NN2C(=O)/C(=C/c3ccc(N(CCC#N)CCC#N)cc3)N=C2c2cc([N+](=O)[O-])ccc2Cl)c1 | < 4.96 | 5.14 | 
72 | CNNC(=NS(=O)(=O)c1cc(C#N)c(NNC)cc1S)NNC |  |  | inactive
73 | COc1ccc(N=Nc2ccc3oc(=O)c(C(=O)Nc4ccc(Cl)cc4)cc3c2)cc1 | < 3.70 | 4.48 | 
74 | CC1=C(C(=O)Nc2ccccc2C)C(c2ccccc2)C(C(=O)Nc2ccccc2C)=C(C)N1 | < 4.94 | < 4.94 | 
75 | CC(=O)OCC1OC(n2c3c(c(-c4ccco4)c(C#N)c2=S)CCCC3)C(OC(C)=O)C(OC(C)=O)C1OC(C)=O (configuration not stated) | < 3.70 | 3.81 | 
76 | COc1ccc2oc3cc(O)cc(OC)c3c(=O)c2c1O | < 3.70 | 3.84 | 
77 | COc1cc(C)c(Br)c2c1C(=O)C(Br)(Br)CC2 | < 3.70 | 6.51 | 
78 | CCN(CC)c1ccc(/C=C2/C=Cc3ccccc32)cc1 | < 5.14 | < 5.14 | 
79 | CN=C(N)c1ccc(N=C(N)c2cccc(C(N)=Nc3ccc(C(N)=NC)cc3)c2)cc1 | < 3.70 | < 3.70 | 
80 | O=C(O)CCCc1ccc2c(c1)CC1(C2)Cc2cc3c(cc2C1)CCCC3 | < 3.70 | 4.44 | 
81 | COC(=O)n1c(=O)n(-c2ccccc2)c(=O)n1C(=O)Nc1ccccc1 | < 3.70 | 3.71 | 
82 | O=c1cc(N=Nc2ccc(O)cc2)[nH]c(=O)[nH]1 | < 3.70 | 4.94 | 
83 | CCOC(=O)C1=C(Nc2ccccc2)OC/C1=N\NC(=O)Cc1ccccc1 | < 4.33 | < 4.33 | 
84 | COc1ccc(NC(=O)C(=O)Cc2nc3ccc([N+](=O)[O-])cc3[nH]c2=O)c(OC)c1 | < 4.76 | < 4.76 | 
85 | CC1=C(C(=O)CC(=O)C(=O)Nc2cccc(Cl)c2C)Sc2ccccc2N1 | < 4.19 | < 4.19 | 
86 | CC1=Nc2ccccc2NC(C)(C)C1 | < 3.02 | 4.25 and 4.43 and < 3.70 | 
87 | O=c1cc(-c2ccccc2)oc2c1ccc1[nH]c3ccccc3c(=O)c12 | < 3.70 | < 3.70 | 
88 | COC(=O)C1C2OC(C)(C)OC2CN1S(=O)(=O)c1ccc(C)cc1 (configuration not stated) |  |  | inactive
89 | CN1CCCCCC(=N\O)/C(=N/O)CCCCC1 | < 3.01 | < 3.01 | 
